The source of these data is patent US20180186796A1, “COMPOUNDS AND USES THEREOF” (LEAD DISCOVERY SIENA S.R.L., priority 2014, published 2018).

SMILES strings stand for the structures. ≈ marks a conversion by molar mass, not a printed value. Like-named read-outs stand apart in the source and are kept apart here.

For one series, the target named is recombinant Fyn (Homo sapiens, UniProt P06241). As to the kind of experiment: Enzymatic assay on isolated Fyn kinase.
The target in a further series is T1, Recombinant human Abl (Homo sapiens, UniProt P00519).
T1 construct: purchased Upstate
Nature of the series: Enzymatic assay on isolated Abl. It counts as biochemical. Conditions: mean of at least two experiments.

A further series concerns the target T2, Recombinant human Src (Homo sapiens, UniProt P12931).
T2 construct: purchased Upstate (Lake Placid, N.Y.)
Nature of the series: Enzymatic assay on isolated Src. It counts as biochemical.

A short description of the next series: Water solubility assay. The conditions noted are these: for H2O Solubility: Table 6; for H2O Sol.: Table 8, 20° C., 24 h.
Series [1] is described as follows: Microsomal stability assay. Conditions: for Metabolic Stab.: percentage of unmodified parent drug, human liver microsomes 60 min; for Metabolic Stab. %: percentage of unmodified drug, Table 8. A general note: Liver microsomes are a subcellular fraction often used to study metabolism.
Series [2] is described as follows: PAMPA, intestinal (GI) permeability. Conditions: for Papp / Papp at 5 h, 0.5 mM: PAMPA; for Papp: Table 6; for PAMPA GI (MR %): Membrane Retention; for Papp at 5 h, 0.5 mM: pH 7.4. On the technique in general: In PAMPA a lipid-coated filter parts donor from acceptor wells.
Method: Donor solution (0.5 mM) was prepared by diluting 1 mM dimethylsulfoxide (DMSO) compound stock solution using phosphate buffer (pH 7.4, 0.025 M). […] Donor solution (150 μL) was added to each well of the filter plate. To each well of the acceptor plate were added 300 μL of solution (50% DMSO in phosphate buffer). All compounds were tested in three different plates on different days. The sandwich was incubated for 5 h at room temperature under gentle shaking. After the incubation time, the plates were separated, and samples were taken from both receiver and donor sides and analyzed using LC with UV detection at 280 nm.
Permeability (Papp) for PAMPA was calculated according to the following equation, obtained from Wohnsland and Faller^27 and Sugano et al.^28 equation with some modification in order to obtain permeability values in cm s^−1,
Drug concentration is estimated by using the peak area integration. Membrane retentions (%) were calculated according to the following equation:
where r is the ratio between drug concentration in the acceptor and equilibrium concentration, D, A, and Eq represented drug concentration in the donor, acceptor and equilibrium solution, respectively.
Donor solution of tested compounds (0.5 mM) was prepared by diluting 1 mM dimethylsulfoxide (DMSO) compound stock solution using phosphate buffer (pH 7.4, 25 mM). […] Donor solution (150 μL) was added to each well of the filter plate. To each well of the acceptor plate were added 300 μL of solution (50% DMSO in phosphate buffer). Compounds was tested in three different plates on different days. The sandwich was incubated for 5 h at room temperature under gentle shaking.
Permeability (Papp) for PAMPA was calculated according to the following equation, obtained from Wohnsland and Faller and Sugano et al.^27, 28.
Drug concentration is estimated by using the peak area integration. Membrane retention (%) was calculated according to the following equation:
The test system of a further series is U87 cells. Nature of the series: Proliferation assay on U87 cells. It counts as cell-based, human. The conditions noted are these: 72 h, viable cells vs untreated. On the procedure: (§1) U87 and U251 cells were purchased from European Collection of Cell Cultures (ECACC, Salisbury, UK) and were cultured in DMEM medium supplemented with 10% Foetal Bovine Serum. In order to determine antiproliferative effect of drugs tumor cells were seeded at 2×10^5 cells/ml density and treated with compounds at indicated concentrations. The cultures were maintained at 37° C. in 5% v/v CO2 for 72 h. Cell number and viability were evaluated by Trypan blue exclusion test. Viable cells were expressed as percentage respect to cells treated with vehicle (=100%). Mean and SD values of at least three different experiments are shown.
(§2) U87 and U251 cells were purchased from European Collection of Cell Cultures (ECACC, Salisbury, UK) and were cultured in DMEM medium supplemented with 10% Foetal Bovine Serum. In order to determine antiproliferative effect of drugs tumor cells were seeded at 2×10^5 cells/ml density and treated with compounds at indicated concentrations. The cultures were maintained at 37° C. in 5% v/v CO2 for 72 h. Cell number and viability were evaluated by Trypan blue exclusion test. Viable cells were expressed as percentage respect to untreated cells (=100%/). Mean and SD values of at least three different experiments are shown.

The next series concerns U251 cells. Nature of the series: Proliferation assay on U251 cells. It counts as cell-based, human. The conditions noted are these: 72 h, viable cells vs untreated. On the procedure:
as §1, §2

The subject of another series is SH-SY5Y cells. Nature of the series: Antiproliferative activity on neuroblastoma human cell line SH-SY5Y. The conditions noted are these: 72 h, viable cells vs untreated. It counts as cell-based. On the procedure: (§3) In vitro experiments were carried out using the human neuroblastoma cell line SH-SY5Y. Cells were purchased from American Type Culture Collection (ATCC, Manassas, Va., USA) and were cultured in DMEM medium supplemented with 100/Foetal Bovine Serum. In order to determine antiproliferative effect of drugs SH-SY5Y cells were seeded at 2×10^5 cells/ml density and treated with compounds at increasing concentrations from 0.01 to 50 μM. The cultures were maintained at 37° C. in 5% v/v CO2 for 72 h. Cell number and vitality were evaluated using the automatic cell counter NucleoCounter® (Chemometec, Denmark). Results from the NucleoCounter represented either total or non-viable cell concentration, depending on the sample preparation indicated by manufacturer.
as §3, with “10% Foetal” for “100/Foetal”

A short description of the next series: PAMPA, BBB permeability. The conditions noted are these: for PAMPA BBB (MR %): Membrane Retention; for Papp at 5 h, 0.5 mM: PAMPA, pH 7.4.
A further series has as its system K562 cells. Nature of the series: Antiproliferative activity on human cell line K562. The conditions noted are these: Homo sapiens, K562, read-out: Cellular Data (IC50, μM) K562. It counts as cell-based.
Series [3] in a line: Stability tests in phosphate buffer and methanol. It counts as physicochemical. The conditions noted are these: 20° C., 48 h incubation.
A short description of series [4]: Enzymatic stability in human plasma. It counts as in vitro ADME. The conditions noted are these: for half-life at 100 μM: human, pooled human plasma diluted with phosphate buffer, pH 7.4.
[5] abbreviates: mean of at least two experiments, read-out: Enzymatic Data (Ki, μM) c-Src.
Where [6] appears, read: water, 20 °C, thermodynamic from solid.
Setting [7] is: methanol, read-out: Stability MeOH t1/2.
[8] abbreviates: phosphate buffer, pH 7.4, read-out: Stability PBS pH 7.4 t1/2.

T1 sequence (P00519 whole entry): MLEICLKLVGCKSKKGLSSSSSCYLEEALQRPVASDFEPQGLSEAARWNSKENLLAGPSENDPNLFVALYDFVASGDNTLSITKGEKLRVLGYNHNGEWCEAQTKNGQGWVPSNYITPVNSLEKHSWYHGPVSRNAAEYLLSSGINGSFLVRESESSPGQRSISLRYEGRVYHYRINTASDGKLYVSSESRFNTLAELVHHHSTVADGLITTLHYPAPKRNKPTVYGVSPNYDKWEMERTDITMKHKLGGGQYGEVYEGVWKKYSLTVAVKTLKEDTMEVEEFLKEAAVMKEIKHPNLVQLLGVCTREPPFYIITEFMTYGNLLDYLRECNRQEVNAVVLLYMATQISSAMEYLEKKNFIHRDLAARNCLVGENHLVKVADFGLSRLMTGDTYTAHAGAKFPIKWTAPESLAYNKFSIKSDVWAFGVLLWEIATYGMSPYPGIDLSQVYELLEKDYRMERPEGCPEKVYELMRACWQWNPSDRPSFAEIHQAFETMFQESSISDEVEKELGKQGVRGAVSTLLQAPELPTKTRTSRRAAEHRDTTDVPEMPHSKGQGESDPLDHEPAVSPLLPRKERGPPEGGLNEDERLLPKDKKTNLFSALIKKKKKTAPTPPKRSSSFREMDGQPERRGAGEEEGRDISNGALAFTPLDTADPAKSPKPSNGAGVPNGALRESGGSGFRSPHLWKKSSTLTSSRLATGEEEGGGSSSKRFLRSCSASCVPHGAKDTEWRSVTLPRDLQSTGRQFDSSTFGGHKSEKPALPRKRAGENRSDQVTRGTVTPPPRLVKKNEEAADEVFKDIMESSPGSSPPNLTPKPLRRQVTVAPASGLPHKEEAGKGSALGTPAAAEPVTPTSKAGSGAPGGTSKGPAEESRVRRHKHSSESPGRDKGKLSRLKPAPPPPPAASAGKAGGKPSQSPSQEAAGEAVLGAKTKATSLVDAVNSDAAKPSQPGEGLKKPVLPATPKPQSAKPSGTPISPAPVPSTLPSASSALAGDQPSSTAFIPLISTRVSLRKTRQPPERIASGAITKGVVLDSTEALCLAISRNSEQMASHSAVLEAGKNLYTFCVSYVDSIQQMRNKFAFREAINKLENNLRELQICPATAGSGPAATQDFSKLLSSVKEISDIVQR
T2 sequence (P12931 whole entry): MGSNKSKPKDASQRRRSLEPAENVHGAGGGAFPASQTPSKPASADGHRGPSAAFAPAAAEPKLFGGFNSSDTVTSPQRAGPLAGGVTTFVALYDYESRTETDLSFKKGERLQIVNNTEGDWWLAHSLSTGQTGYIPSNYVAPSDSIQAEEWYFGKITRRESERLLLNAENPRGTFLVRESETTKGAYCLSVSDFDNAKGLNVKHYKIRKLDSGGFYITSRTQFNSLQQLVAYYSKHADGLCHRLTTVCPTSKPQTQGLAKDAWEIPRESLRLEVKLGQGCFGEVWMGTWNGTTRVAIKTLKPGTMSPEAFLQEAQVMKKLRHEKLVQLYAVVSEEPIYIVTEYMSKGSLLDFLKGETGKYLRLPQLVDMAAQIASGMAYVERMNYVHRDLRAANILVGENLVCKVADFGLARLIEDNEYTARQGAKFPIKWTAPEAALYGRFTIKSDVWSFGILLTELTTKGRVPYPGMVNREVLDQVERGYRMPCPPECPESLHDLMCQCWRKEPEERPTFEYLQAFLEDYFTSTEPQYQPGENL
Sequence of recombinant Fyn (P06241 whole entry, looked up): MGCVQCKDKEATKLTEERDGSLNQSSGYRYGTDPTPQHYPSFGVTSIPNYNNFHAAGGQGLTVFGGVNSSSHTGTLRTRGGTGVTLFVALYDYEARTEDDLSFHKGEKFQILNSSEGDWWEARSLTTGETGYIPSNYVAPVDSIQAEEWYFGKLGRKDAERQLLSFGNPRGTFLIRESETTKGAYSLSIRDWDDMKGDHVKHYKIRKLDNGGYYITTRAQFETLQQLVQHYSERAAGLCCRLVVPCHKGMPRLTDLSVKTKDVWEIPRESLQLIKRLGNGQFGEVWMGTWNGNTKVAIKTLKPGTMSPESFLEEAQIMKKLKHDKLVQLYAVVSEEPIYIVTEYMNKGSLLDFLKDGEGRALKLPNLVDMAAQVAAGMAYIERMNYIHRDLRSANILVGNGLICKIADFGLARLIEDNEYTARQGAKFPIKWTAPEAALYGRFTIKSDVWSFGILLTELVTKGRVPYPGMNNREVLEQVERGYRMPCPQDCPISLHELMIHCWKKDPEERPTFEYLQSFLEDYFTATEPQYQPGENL
Method for K562 cells: In vitro experiments were carried out using the human Chronic Myelogeneous Leukemia cell line K562. Cells were purchased from American Type Culture Collection (ATCC, Manassas, Va., USA) and were cultured in RPMI medium supplemented with 10% Foetal Bovine Serum. […] Cell number and vitality were evaluated using the automatic cell counter NucleoCounteri (Chemometec, Denmark). Results from the NucleoCounter represented either total or non-viable cell concentration, depending on the sample preparation indicated by manufacturer.
In vitro experiments were carried out using the human Chronic Myelogeneous Leukemia cell line K562. Cells were purchased from American Type Culture Collection (ATCC, Manassas, Va., USA) and were cultured in RPMI medium supplemented with 10% Foetal Bovine Serum. […] Cell number and vitality were evaluated using the automatic cell counter NucleoCounter® (Chemometec, Denmark). Results from the NucleoCounter represented either total or non-viable cell concentration, depending on the sample preparation indicated by manufacturer.
Method for Recombinant human Abl: Recombinant human Abl was purchased from Upstate.
Activity was measured in a filter binding assay using an Abl specific peptide substrate (Abtide, Upstate).
From the text for Recombinant human Src: Recombinant human Src was purchased from Upstate (Lake Placid, N.Y.).
Method for Water solubility assay: Each solid compound (1 mg) was added to 1 mL of water. […] The suspensions were filtered through a 0.45 μm nylon filter (Acrodisc), and the solubilized compound determined by LC-MS-MS assay. For each compound the determination was performed in triplicate. […] The flow rate was 0.2 mL min-^−1 and injection volume was 5 μL. The instrument operated in positive mode and parameters were: detector 1850 V, drying gas pressure 25.0 psi, desolvation temperature 300.0° C., nebulizing gas 40.0 psi, needle 5000 V and shield 600 V. Nitrogen was used as nebulizer gas and drying gas.
Solid compound (1 mg) was added to 1 mL of water. […] The suspensions were filtered through a 0.45-μm nylon filter (Acrodisc), and the solubilised compound determined by LC-UV-MS assay. The determination was performed in triplicate.
Chromatographic analysis was performed with the method above reported and quantification of compounds was made by comparison with apposite calibration curves realized with standard solutions in methanol.
Method for recombinant Fyn: Kinase assays were performed in presence of 200 μM ATP and 100 μM peptide substrate. All inhibition assays were conducted with 0.01 μg active kinase, 0.33 μmol [^γ32P]ATP, 60 mM HEPES-NaOH pH 7.5, 3 μM Na-orthovanadate, 1.2 mM DTT, 50 μg/ml PEG20.0000, 10 mM magnesium acetate, 0.004% NP40 and 10% DMSO in a final volume of 10 μL. Fyn and inhibitors were preincubated in ice for 5 min; after addition of the substrates the reaction was conducted at 30° C. for 10 min. The reaction was stopped by adding 5 μL of 3% phosphoric acid. Aliquots (10 μL) were then transferred into a P30 Filtermat (PerkinElmer), washed five times with 75 mM phosphoric acid and once with acetone for 5 minute. The filter was dried and transferred to a sealable plastic bag, and scintillation cocktail (4 mL) was added. Spotted reactions were read in a MicroBeta Liquid (Perkinelmer) scintillation counter. The ID50 values were obtained according to the following equation:
Ki values toward recombinant Fyn were calculated using the equation:
according to a competitive mechanism of inhibition toward ATP substrate, where [SATP] is the concentration of ATP. Curve fitting was performed with the program GraphPad Prism version 5.00.

With `Clc1cccc(Nc2nc(SC3CCCC3)nc3c2cnn3CC(Cl)c2ccccc2)c1` (centres unmarked), the Ki on recombinant Fyn, at Recombinant human Abl and at Recombinant human Src was > 100 µM each time.

Regarding `Clc1cccc(Nc2nc(SCCN3CCOCC3)nc3c2cnn3CC(Cl)c2ccccc2)c1` (centres unmarked) [Si181, 1-(2-chloro-2-phenylethyl)-N-(3-chlorophenyl)-6-((2-morpholinoethyl)thio)-1H-pyrazolo[3,4-d]pyrimidin-4-amine, reference compound], the “H2O Solubility” value in “Water solubility assay” was found to be 0.1 µg/mL. In addition, the Ki on Recombinant human Abl is 0.12 µM; at Recombinant human Src (setting [5]), 0.19 µM. In addition, the “Metabolic Stab.” value in [1] is 95%. For the same compound, the Papp in series [2] is reported as 9.5 10^−6 cm/sec.

Consider `CSc1nc(Nc2cccc(Br)c2)c2cnn(CC(C)c3ccccc3)c2n1` (centres unmarked) [Si278, N-(3-bromophenyl)-6-(methylthio)-1-(2-phenylpropyl)-H-pyrazolo[3,4-d]pyrimidin-4-amine], for which the “H2O Sol. (Log S)” value in “Water solubility assay” (Table 8) is “(<−7.60) log mol · L^−1”. Also, the “H2O Sol.” value in “Water solubility assay” is <0.01 µg/mL. Moreover, the figures for the half-inhibitory concentration (IC50) in the series with U87 cells, with U251 cells and in the series on SH-SY5Y cells were 5800 nM, 3700 nM and 1200 nM, respectively. Moreover, the “Metabolic Stab. %” value in [1] amounted to 95.1%. Also, the “PAMPA BBB” value in “PAMPA, BBB permeability” (Blood Brain Barrier PAMPA) is reported as 0.50 10^−6 cm · sec^−1. In “PAMPA, BBB permeability”, the “PAMPA BBB (MR %)” value is “(66.3) %”. For the same compound, the “PAMPA GI” value in series [2] (Gastrointestinal PAMPA, Table 8) was 0 10^−6 cm · sec^−1. In series [2], the “PAMPA GI (MR %)” value is “(80.4) %”.

For `Nc1ncnc2c1c(-c1ccc(F)cc1)nn2CC(Cl)c1ccccc1` (centres unmarked) [Si310, 1-(2-Chloro-2-phenylethyl)-3-(4-fluorophenyl)-1H-pyrazolo[3,4-d]pyrimidin-4-amine], the melting point was 203 to 206 °C. In addition, the Ki on recombinant Fyn (read-out: Enzymatic Data (Ki, μM) Fyn) was 0.36 µM. Also, the IC50 in the series on K562 cells amounted to 12.6 ± 14.8 µM.

Regarding `CSc1nc(Nc2cccc(O)c2)c2cnn(CC(Cl)c3ccccc3)c2n1` (centres unmarked) [Si322], in the series “Water solubility assay”, the “H2O Solubility” value turned out to be 4.3 µg/mL. The Ki is 0.15 µM at Recombinant human Abl and 0.03 µM on Recombinant human Src (read-out: Ki c-Src). For the same compound, the “Metabolic Stab.” value in [1] amounted to 98%. Also, the Papp in [2] is reported as 5.92 10^−6 cm/sec.

Regarding `CC(C)Sc1nc(Nc2cccc(O)c2)c2cnn(CC(Cl)c3ccccc3)c2n1` (centres unmarked) [Si323], the “H2O Solubility” value in the series “Water solubility assay” turned out to be 0.9 µg/mL. In addition, the Ki at Recombinant human Abl was determined as 0.12 µM; at Recombinant human Src (read-out: Ki c-Src), 0.01 µM. Further, the “Metabolic Stab.” value in series [1] was 95%. The Papp in [2] was 4.53 10^−6 cm/sec.

The compound `Fc1ccc(CCn2ncc3c(Nc4cccc(Cl)c4)nc(SCCN4CCOCC4)nc32)cc1` [Si327, N-(3-Chlorophenyl)-1-[2-(4-fluorophenyl)ethyl]-6-[(2-morpholin-1-ylethyl)thio]-1H-pyrazolo[3,4-d]pyrimidin-4-amine] came in with a melting point of 127 to 128 °C. In addition, the Ki on Recombinant human Src (read-out: Ki c-Src) was ~0.1 µM.

In the case of `Oc1cccc(Nc2nc(SC3CCCC3)nc3c2cnn3CC(Cl)c2ccccc2)c1` (centres unmarked) [Si330], in “Water solubility assay”, the “H2O Solubility” value stood at 0.6 µg/mL. The Ki on Recombinant human Abl was determined as 0.15 µM; on Recombinant human Src (read-out: Ki c-Src), 0.007 µM. In addition, the “Metabolic Stab.” value in series [1] came out at 91%. In series [2], the Papp was 3.91 10^−6 cm/sec.

On to `Fc1cccc(Nc2nc(SC3CCCC3)nc3c2cnn3CC(Cl)c2ccccc2)c1` (centres unmarked) [drawing 179], for which the Ki on Recombinant human Abl is > 100 µM; at Recombinant human Src (setting [5]), 0.11 µM. The “Metabolic Stab.” value in series [1] is 95%. For the same compound, the Papp in series [2] is given as 14 10^−6 cm/sec.

For the compound `CCCCN(C(=O)OCCN1CCN(C)CC1)c1nc(SCC)nc2c1cnn2CC(Cl)c1ccccc1` (centres unmarked) [proSi20, 2-(4-Methylpiperazin-1-yl)ethyl butyl(1-(2-chloro-2-phenylethyl)-6-(ethylthio)-1H-pyrazolo[3,4-d]pyrimidin-4-yl)carbamate], the IC50 in the series with U87 cells (Homo sapiens, U-87 MG) was determined as 3600 nM; in the series with U251 cells (Homo sapiens, U-251) it was 800 nM; in the series on SH-SY5Y cells (Homo sapiens, SH-SY5Y), 300 nM.

Compound `CN1CCN(CCOC(=O)N(c2ccccc2)c2ncnc3c2cnn3CC(Cl)c2ccc(Br)cc2)CC1` (centres unmarked) [proSi223, 2-(4-Methylpiperazin-1-yl)ethyl (1-(2-(4-bromophenyl)-2-chloroethyl)-H-pyrazolo[3,4-d]pyrimidin-4-yl)(phenyl)carbamate] gave a solubility at 24 h in the series “Water solubility assay” (setting [6]) of 70.8 µM (≈ 42.4 µg/mL). The compound also showed a solubility (thermodynamic) at 24 h in the series “Water solubility assay” (setting [6]) of 41.6 µg/mL (≈ 69.4 µM). Moreover, the IC50 in the series with U87 cells (Homo sapiens, U-87 MG) is 5100 nM; with U251 cells (Homo sapiens, U-251), 4700 nM; with SH-SY5Y cells (Homo sapiens, SH-SY5Y), 12600 nM. Besides, the half-life at 500 μM in series [3] (setting [7]) and in [3] (setting [8]) was > 48 h in each case. For the same compound, the “PAMPA BBB (MR %)” value in “PAMPA, BBB permeability” is “(24.9) %”. In addition, the Papp at 5 h, 0.5 mM was 6.97 ×10⁻⁶ cm/s in “PAMPA, BBB permeability” and 9.91 ×10⁻⁶ cm/s in [2]. In addition, in [2], the “PAMPA GI (MR %)” value is “(16.0) %”. Besides, in [4] (37° C., read-out: Stability Human Plasma t1/2 (converted)), the half-life at 100 μM is 4.47 h.

As to `CSc1nc(N(C(=O)OCCN2CCN(C)CC2)c2cccc(Br)c2)c2cnn(CC(C)c3ccccc3)c2n1` (centres unmarked) [proSi278 (A), 2-(4-Methylpiperazin-1-yl)ethyl (3-bromophenyl)(6-(methylthio)-1-(2-phenylpropyl)-1H-pyrazolo[3,4-d]pyrimidin-4-yl)carbamate], the “H2O Sol.” value in “Water solubility assay” was 6.47 µg/mL. Also, the solubility at 24 h in the series “Water solubility assay” (setting [6]) was 11.5 µM (≈ 7.17 µg/mL). The IC50 in the series on U87 cells (Homo sapiens, U-87 MG) stood at 6300 nM; in the series with U251 cells (Homo sapiens, U-251) it was 5200 nM; in the series with SH-SY5Y cells (Homo sapiens, SH-SY5Y) it was 400 nM. Further, the half-life at 500 μM in series [3] (setting [7]) and in [3] (setting [8]) was > 48 h in each case. Further, the “Metabolic Stab. %” value in [1] amounted to 99.9%. In “PAMPA, BBB permeability”, the “PAMPA BBB (MR %)” value is reported as “(49.8) %”. In addition, the Papp at 5 h, 0.5 mM in the series “PAMPA, BBB permeability” came out at 1.89 ×10⁻⁶ cm/s; in series [2], 2.11 ×10⁻⁶ cm/s. Moreover, the “PAMPA GI (MR %)” value in series [2] is given as “(67.0) %”. The “Stability Human Plasma t1/2” value in [4] (37° C.) turned out to be 3.21 h. Also, the half-life at 100 μM in series [4] (read-out: t1/2 in human plasma (converted)) was 3.21 h.

As a reminder, the Ki is the dissociation constant of the complex between target and ligand, obtained from inhibition or displacement. As a reminder, the Papp is the rate of passage across a membrane or cell layer, normalised by area and donor concentration. Low values mean poor permeation, high ones ready permeation. Broadly, the IC50 is the concentration at which inhibition is half-maximal. The melting point is the temperature of the solid-liquid transition. One may read the solubility as the dissolved amount per volume that the medium holds. The solubility (thermodynamic) is solubility found after equilibrating the solid with the medium.
